From patent publication US7759366B2 (Sanofi-Aventis, priority 2006, dated 2010)
Counter-ions that a name gives are not always drawn. Like-named read-outs stand apart in the source and are kept apart here.

What was measured:
hCB1R [1] = molecular target: T1, hCB1R (Homo sapiens, UniProt P21554); test: In vitro functional assay (FLIPR, intracellular Ca2+) with recombinant HEK293 cells, CB1; assay type: cell-based; set-up: expressed in transfected cells; host or cells: HEK293
Description: In Vitro Functional Assays with Recombinant Cells:

hCB2R = hCB2R (Homo sapiens, UniProt P34972); test: In vitro functional assay (FLIPR, intracellular Ca2+) with recombinant HEK293 cells, CB2;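 note: intracellular Ca2+ was tracked with the fluorescent dye Fluo-4 loaded into the cells before test substance addition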
Method: Function-testing assays were performed by means of the FLIPR technique (“Fluorometric Imaging Plate Reader”, Molecular Devices Corp.).
To this end, ligand-induced changes in the intracellular concentration of Ca^2+ in recombinant HEK293 cells, which expressed both a cannabinoid receptor (CB1 or CB2) and G-protein Galpha16, were determined. For the studies, cells were sown into 96-well microtiter plates (60 000 cells/well) and left to grow overnight. The medium was removed and the cells were incubated in buffer which contained the fluorescent dye Fluo-4. After this loading with dye, the cells were washed, test substance was added dissolved in buffer, the mixture was incubated for 20 minutes, a known cannabinoid receptor agonist as a reference agonist was added in buffer and, finally, the changes in the intracellular Ca^2+ concentration were measured in the FLIPR unit.

hCB1R [2] = molecular target: T1, hCB1R; test: Binding to the CB1 receptor ([3H]-SR141716A displacement)
Method: Binding to the CB1 Receptor:
Test compounds: The compounds (3 μl, 10 mM, 100% DMSO), pipetted into 96-well PP microtiter plates, were diluted with 27 μl of 100% DMSO (dimethyl sulfoxide). Proceeding from this solution, further 3-fold dilution steps were undertaken by transferring 10 μl in each case to a new PP microtiter plate and adding a further 20 μl of 100% DMSO. In each case 6 μl of these solutions were transferred into new 96-well PP microtiter plates and made up with 144 μl of assay buffer. The end concentrations ranged from 10 μM to 0.005 μM. Negative control: AM 251, dissolved in assay buffer with 1% DMSO, was added to the dilution series in the microtiter plates as a control. The end concentration was 1 μM. Blank control: assay buffer with 1% DMSO was added to the dilution series of the microtiter plates as a blank control.
Summary of the Assay Parameters:
High control: ^3H binding without addition of the compound
Low control: ^3H binding in the presence of 1 μM AM 251
The values were calculated using the corrected raw data.
The values reported were obtained as average values of a double determination. The IC50 values were calculated from the measurements with the program Xlfit, formula 205. Ki values were obtained from the IC50 and Kd values utilizing the Cheng-Prusoff equation: […]
Literature: Cheng, Y.-C., and Prusoff, W. H. (1973) Biochem. Pharmacol 22, 3099-3108

[3] = recombinant HEK293 cells expressing CB1 and Galpha16, 20 min preincubation, then reference agonist, Ca2+ change, read-out: hCB1R: FLIPR, IC50
[4] = CHO-K1/cannabinoid CB1 protein 2 μg/well, [3H]-SR141716A 0.5 nM, Ki from IC50 by Cheng-Prusoff, average of double determination, read-out: hCB1R, binding Ki
[5] = read-out: hCB2R: FLIPR, IC50, recombinant HEK293 cells expressing CB2 and Galpha16, 20 min preincubation, then reference agonist, Ca2+ change

Sequence of hCB2R (P34972 whole entry): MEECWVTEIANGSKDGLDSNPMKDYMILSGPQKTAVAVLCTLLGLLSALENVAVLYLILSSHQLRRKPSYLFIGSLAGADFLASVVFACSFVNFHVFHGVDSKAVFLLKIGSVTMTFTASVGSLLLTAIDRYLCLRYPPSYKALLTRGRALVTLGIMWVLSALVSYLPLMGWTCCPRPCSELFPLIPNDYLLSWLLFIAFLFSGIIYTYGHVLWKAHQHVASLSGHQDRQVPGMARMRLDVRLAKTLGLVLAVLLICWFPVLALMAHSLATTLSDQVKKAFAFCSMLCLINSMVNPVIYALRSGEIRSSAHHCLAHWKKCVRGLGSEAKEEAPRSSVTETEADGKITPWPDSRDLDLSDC
T1 sequence (P21554 whole entry): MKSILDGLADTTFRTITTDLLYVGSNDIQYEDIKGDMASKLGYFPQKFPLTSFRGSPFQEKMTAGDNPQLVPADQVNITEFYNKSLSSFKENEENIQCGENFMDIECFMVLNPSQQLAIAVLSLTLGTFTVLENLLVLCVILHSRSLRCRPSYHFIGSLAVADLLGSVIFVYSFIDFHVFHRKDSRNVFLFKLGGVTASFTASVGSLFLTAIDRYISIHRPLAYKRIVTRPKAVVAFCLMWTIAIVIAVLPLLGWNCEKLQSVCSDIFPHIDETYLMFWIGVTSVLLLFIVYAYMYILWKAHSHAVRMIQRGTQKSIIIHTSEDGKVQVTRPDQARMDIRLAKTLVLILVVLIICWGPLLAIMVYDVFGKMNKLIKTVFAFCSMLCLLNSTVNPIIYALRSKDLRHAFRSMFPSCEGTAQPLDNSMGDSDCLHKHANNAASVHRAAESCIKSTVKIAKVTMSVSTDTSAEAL

Q: `CC1(C)C(=O)N(c2ccc(C#N)c(C(F)(F)F)c2)C(=O)N1Cc1ccccc1Nc1ccc(CC(=O)O)cc1` [Example 92, (4-{2-[3-(4-cyano-3-trifluoromethylphenyl)-5,5-dimethyl-2,4-dioxoimidazolidin-1-ylmethyl]phenylamino}phenyl)acetic acid] was tested. Which IC50 (hCB1R [1]; [3]) did it give?
A: Its IC50 is 137 nM.

Q: What about the IC50 (hCB2R) of the same molecule?
A: The IC50 was over 10000 nM.

Q: What does the source list for `CC1(C)C(=O)N(c2ccc(C#N)c(-c3ccccc3)c2)C(=O)N1Cc1ccc(F)cc1Nc1ccc(C(=O)O)cc1` [Example 227, 4-{2-[3-(6-cyanobiphenyl-3-yl)-5,5-dimethyl-2,4-dioxoimidazolidin-1-ylmethyl]-5-fluorophenylamino}benzoic acid]?
A: Ki (hCB1R [2]; [4]): 36 nM; IC50 (hCB1R [1]; [3]): 16 nM

Q: What does the source list for `COC(=O)Cc1ccc(Nc2ccccc2CN2C(=O)N(c3ccc(C#N)c(C(F)(F)F)c3)C(=O)C2(C)C)cc1` [Example 82, methyl (4-{2-[3-(4-cyano-3-trifluoromethylphenyl)-5,5-dimethyl-2,4-dioxoimidazolidin-1-ylmethyl]phenylamino}phenyl)acetate]?
A: IC50 (hCB1R [1]): 52 nM; IC50 (hCB2R; [5]): > 10000 nM

Q: Which IC50 (hCB1R [1]; [3]) does the source give for `CC1(C)C(=O)N(c2ccc(C#N)c(C(F)(F)F)c2)C(=O)N1Cc1ccccc1Nc1ccc(S(N)(=O)=O)cc1F` [Example 81, 4-{2-[3-(4-cyano-3-trifluoromethylphenyl)-5,5-dimethyl-2,4-dioxoimidazolidin-1-ylmethyl]phenylamino}-3-fluorobenzenesulfonamide] here?
A: The IC50 was 144 nM.

Q: And the IC50 (hCB2R)?
A: Its IC50 is over 10000 nM.

Q: How did the Ki (hCB1R [2]) turn out when `CC1(C)C(=O)N(c2ccc(C#N)c(C(F)(F)F)c2)C(=O)N1Cc1ccc(C(F)(F)F)cc1Nc1ccc(F)cc1` [Example 55, 4-{3-[2-(4-Fluorophenylamino)-4-trifluoromethylbenzyl]-4,4-dimethyl-2,5-dioxoimidazolidin-1-yl}-2-trifluoromethylbenzonitrile] was run?
A: The Ki was 8 nM.

Q: What about the IC50 (hCB1R [1]; [3]) of the same molecule?
A: The IC50 was 10 nM.

Q: `CC1(C)C(=O)N(c2ccc(C#N)c(C(F)(F)F)c2)C(=O)N1Cc1ccccc1Nc1ccc(C#N)cc1F` [Example 73, 4-{3-[2-(2-fluoro-4-cyanophenylamino)benzyl]-4,4-dimethyl-2,5-dioxoimidazolidin-1-yl}-2-trifluoromethylbenzonitrile] was tested. Which IC50 (hCB1R [1]) did it give?
A: Its IC50 is 7 nM.

Q: What about the IC50 (hCB2R; [5]) of the same molecule?
A: Its IC50 is over 10000 nM.

Q: How did the IC50 (hCB1R [1]) turn out when `CC1(C)C(=O)N(c2ccc(C#N)c(C(F)(F)F)c2)C(=O)N1Cc1ccccc1Nc1ccc(OC(F)(F)F)cc1F` [Example 85, 4-{3-[2-(2-fluoro-4-trifluoromethoxyphenylamino)benzyl]-4,4-dimethyl-2,5-dioxoimidazolidin-1-yl}-2-trifluoromethylbenzonitrile] was run?
A: Its IC50 is 7 nM.

Q: What about the IC50 (hCB2R; [5]) of the same molecule?
A: Its IC50 is over 10000 nM.

Q: What does the source list for `CC1(C)C(=O)N(c2ccc(C#N)c(C(F)(F)F)c2)C(=O)N1Cc1ccccc1Nc1ccc(CC#N)cc1` [Example 78, 4-{3-[2-(4-cyanomethylphenylamino)benzyl]-4,4-dimethyl-2,5-dioxoimidazolidin-1-yl}-2-trifluoromethylbenzonitrile]?
A: IC50 (hCB1R [1]): 4 nM; IC50 (hCB2R; [5]): > 10000 nM

Q: Which results are given for `CC1(C)C(=O)N(c2ccc(C#N)c(C(F)(F)F)c2)C(=O)N1Cc1ccc(C(F)(F)F)cc1Nc1ccc(Cl)cc1` [Example 57, 4-{3-[2-(4-chlorophenylamino)-4-trifluoromethylbenzyl]-4,4-dimethyl-2,5-dioxoimidazolidin-1-yl}-2-trifluoromethylbenzonitrile]?
A: IC50 (hCB1R [1]): 36 nM; IC50 (hCB2R; [5]): > 10000 nM

Q: With `CC1(C)C(=O)N(c2ccc(C#N)c(C(F)(F)F)c2)C(=O)N1Cc1c(Cl)cc(Cl)cc1Nc1ccc(F)cc1F` [Example 36, 4-{3-[2,4-dichloro-6-(2,4-difluorophenylamino)benzyl]-4,4-dimethyl-2,5-dioxoimidazolidin-1-yl}-2-trifluoromethylbenzonitrile] as the molecule, how does the IC50 (hCB1R [1]) read?
A: The IC50 was 11 nM.

Q: What about the IC50 (hCB2R; [5]) of the same molecule?
A: Its IC50 is over 10000 nM.

Q: Which IC50 (hCB1R [1]) does the source give for `CC1(C)C(=O)N(c2ccc(C#N)c(C(F)(F)F)c2)C(=O)N1Cc1ccccc1Nc1ccc(C(F)(F)F)nc1` [Example 91, 4-{4,4-dimethyl-2,5-dioxo-3-[2-(6-trifluoromethylpyridin-3-ylamino)benzyl]-imidazolidin-1-yl}-2-trifluoromethylbenzonitrile] here?
A: The IC50 was 30 nM.

Q: And the IC50 (hCB2R; [5])?
A: Its IC50 is over 10000 nM.

Q: With `COc1ccc(Nc2ccccc2CN2C(=O)N(c3ccc(C#N)c(C(F)(F)F)c3)C(=O)C2(C)C)c(F)c1` [Example 74, 4-{3-[2-(2-fluoro-4-methoxyphenylamino)benzyl]-4,4-dimethyl-2,5-dioxoimidazolidin-1-yl}-2-trifluoromethylbenzonitrile] as the molecule, how does the IC50 (hCB1R [1]) read?
A: Its IC50 is 4 nM.

Q: And the IC50 (hCB2R; [5])?
A: Its IC50 is over 10000 nM.

Q: Which results are given for `COc1ccc(Nc2ccccc2CN2C(=O)N(c3ccc(C#N)c(C(F)(F)F)c3)C(=O)C2(C)C)cn1` [Example 83, 4-{3-[2-(6-methoxypyridin-3-ylamino)benzyl]-4,4-dimethyl-2,5-dioxoimidazolidin-1-yl}-2-trifluoromethylbenzonitrile]?
A: IC50 (hCB1R [1]): 9 nM; IC50 (hCB2R; [5]): > 10000 nM

Q: For `CC1(C)C(=O)N(c2ccc(C#N)c(C(F)(F)F)c2)C(=O)N1Cc1ccc(Nc2ccccc2)cc1` [Example 30, 4-[4,4-Dimethyl-2,5-dioxo-3-(4-phenylaminobenzyl)imidazolidin-1-yl]-2-trifluoromethylbenzonitrile], which IC50 (hCB1R [1]; [3]) is on record?
A: The IC50 was 208 nM.

Q: And the IC50 (hCB2R)?
A: Its IC50 is over 10000 nM.

Q: Which results are given for `CC1(C)C(=O)N(c2ccc(C#N)c(C(F)(F)F)c2)C(=O)N1Cc1ccccc1Nc1ccc(S(N)(=O)=O)cc1` [Example 68, 5,5-4-{2-[3-(4-Cyano-3-trifluoromethylphenyl)-5,5-dimethyl-2,4-dioxoimidazolidin-1-ylmethyl]phenylamino}benzene sulfonamide]?
A: Ki (hCB1R [2]): 16 nM; IC50 (hCB1R [1]; [3]): 44 nM

Q: With `COC(=O)c1ccc(Nc2ccccc2CN2C(=O)N(c3ccc(C#N)c(C(F)(F)F)c3)C(=O)C2(C)C)cn1` [Example 90, methyl 5-{2-[3-(4-cyano-3-trifluoromethylphenyl)-5,5-dimethyl-2,4-dioxoimidazolidin-1-ylmethyl]phenylamino}pyridine-2-carboxylate] as the molecule, how does the IC50 (hCB1R [1]) read?
A: The IC50 was 39 nM.

Q: And the IC50 (hCB2R; [5])?
A: Its IC50 is over 10000 nM.

Q: With `CC1(C)C(=O)N(c2ccc(C#N)c(C(F)(F)F)c2)C(=O)N1Cc1ccccc1Nc1ccc(F)cc1` [Example 2, 4-{3-[2-(4-fluorophenylamino)benzyl]-4,4-dimethyl-2,5-dioxoimidazolidin-1-yl}-2-trifluoromethylbenzonitrile] as the molecule, how does the IC50 (hCB1R [1]) read?
A: Its IC50 is 11 nM.

Q: And the IC50 (hCB2R; [5])?
A: The IC50 was over 10000 nM.

Q: With `CC1(C)C(=O)N(c2ccc(C#N)c(C(F)(F)F)c2)C(=O)N1Cc1ccccc1Nc1ccc(C(N)=O)cc1` [Example 136, 4-{2-[3-(4-Cyano-3-trifluoromethylphenyl)-5,5-dimethyl-2,4-dioxoimidazolidin-1-ylmethyl]phenylamino}benzamide] as the molecule, how does the IC50 (hCB1R [1]) read?
A: Its IC50 is 5 nM.

Q: What about the IC50 (hCB2R; [5]) of the same molecule?
A: The IC50 was over 10000 nM.

Q: `CC1(C)C(=O)N(c2ccc(F)c(C(F)(F)F)c2)C(=O)N1Cc1ccccc1Nc1ccc(C(=N)NO)cc1` [Example 143, 4-{2-[3-(4-Fluoro-3-trifluoromethylphenyl)-5,5-dimethyl-2,4-dioxoimidazolidin-1-ylmethyl]phenylamino}-N-hydroxybenzamidine hydrochloride] was tested. Which IC50 (hCB1R [1]; [3]) did it give?
A: The IC50 was 13 nM.

Q: What about the IC50 (hCB2R) of the same molecule?
A: The IC50 was over 10000 nM.

Q: For `COC(=O)c1ccc(Nc2cc(OC)ccc2CN2C(=O)N(c3ccc(C#N)c(C(F)(F)F)c3)C(=O)C2(C)C)cc1` [Example 110, Methyl 4-{2-[3-(4-cyano-3-trifluoromethylphenyl)-5,5-dimethyl-2,4-dioxoimidazolidin-1-ylmethyl]-5-methoxyphenylamino}benzoate], which Ki (hCB1R [2]) is on record?
A: The Ki was 5 nM.

Q: `CC1(C)C(=O)N(c2ccc(C#N)c(C(F)(F)F)c2)C(=O)N1Cc1ccccc1Nc1ccc(OC(F)(F)F)cc1` [Example 12, 4-{3-[2-(4-trifluoromethoxy-phenylamino)benzyl]-4,4-dimethyl-2,5-dioxoimidazolidin-1-yl}-2-trifluoromethylbenzonitrile] was tested. Which Ki (hCB1R [2]) did it give?
A: Its Ki is 0.9 nM.

Q: Which Ki (hCB1R [2]; [4]) does the source give for `CC1(C)C(=O)N(c2ccc(F)c(C(F)(F)F)c2)C(=O)N1Cc1ccc(F)cc1Nc1ccc(C(=O)N2CCNCC2)cc1` [Example 172, 1-{4-Fluoro-2-[4-(piperazine-1-carbonyl)phenylamino]benzyl}-3-(4-fluoro-3-trifluoromethylphenyl)-5,5-dimethylimidazolidine-2,4-dione] here?
A: Its Ki is 8 nM.

Q: How did the Ki (hCB1R [2]) turn out when `CC(C)(C)c1cc(N2C(=O)N(Cc3ccccc3Nc3ccccc3)C(C)(C)C2=O)ccc1C#N` [Example 63, 2-tert-Butyl-4-[4,4-dimethyl-2,5-dioxo-3-(2-phenylaminobenzyl)imidazolidin-1-yl]benzonitrile] was run?
A: Its Ki is 9 nM.

Q: With `CC1(C)C(=O)N(c2ccc(C#N)c(C(F)(F)F)c2)C(=O)N1Cc1ccccc1Nc1ccc(C(=O)NCCCS(C)(=O)=O)cc1` [Example 173, 4-{2-[3-(4-Cyano-3-trifluoromethylphenyl)-5,5-dimethyl-2,4-dioxoimidazolidin-1-ylmethyl]phenylamino}-N-(3-methanesulfonylpropyl)benzamide] as the molecule, how does the Ki (hCB1R [2]) read?
A: Its Ki is 34 nM.
